The source of these data is US7785846B2, “Method for the production of methionine” (Evonik Degussa GmbH, priority 2003, dated 2010).

The conditions of data set [1]: under these conditions (20° C. and 70° C.), compared with water.
Another data set can be described thus: physchem. Particulars: water.

Values after ≈ are worked out from the molar mass of the structure shown.

The solubility is the dissolved amount per volume that the medium holds. A higher solubility goes with much dissolved substance. Regarding `CSCC[C@H](N)C(=O)O` [methionine], the “solubility in the fermentation broth” value in data set [1] is “comparable order of magnitude”. Besides, the solubility was ~30 mg/mL (≈ 201 mM) in “physchem” (20 °C) and > 90 mg/mL in “physchem” (70 °C).
